The target of experiment [1] is T1, rat metabotropic glutamate receptor 5 (mGluR5) (Rattus norvegicus, UniProt P31424).
T1 construct: expressed in transfected cells; host or cells: HEK 293
The experiment in a line: Calcium mobilization assay (FLIPR) for negative or positive allosteric activity, HEK 293 cells. The experiment is classed as cell-based. Particulars: HEK293, negative allosteric modulation, inhibition of EC80 glutamate response; read-out: FLIPR maximum inhibition. The essentials:
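HEK 293 cells stably expressing rat mGluR5, Fluo-4 loaded in HEPES-buffered HBSS pH 7.4 with 0.1% BSA and probenecid. Compound added with EC20 (potentiation) or EC80 (inhibition) glutamate; fluorescence read over 3 min at room temperature. Basal-subtracted maximum fluorescence change fitted to Hill equation.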
Background: Calcium flux is commonly read through the fluorescence of an indicator in the cells.

In experiment [2] the test system is adult, male CD1 mice. The experiment in a line: Mouse marble burying (mMB) assay, anxiolytic effect. Conditions: for minimal effective dose: SC injection, one-way ANOVA with Dunnett's test or t-test, read-out: Statistically significant Active Dose; for mMB EDmin: SC given for Example 58. The format is in vivo. On the procedure:
(§1) Examples 1, 2 and 58 were evaluated in vivo for anxiolytic effects using (1) mouse marble burying (mMB) methods similar to those described in [K. Njung'e, K. and S. L. Handley, Pharmacology, Biochemistry and Behavior, 1991, 38, 63-67] and (2) a modified Geller-Seifter conflict test described in [N. A. Moore et al. Behavioural Pharmacology. 1994, 5, 196-202].
More specifically for the mMB testing, adult, male CD1 mice (Charles River Laboratories (Kingston, N.Y.)), weighing 25 to 30 g, were used. All animals were group-housed in a standard colony room with a 12:12 light/dark cycle (lights on at 6:00 am) for at least one week prior to testing. Food and water were provided ad libitum. Animals were weighed, tail marked, and randomly assigned to treatment groups before testing.
For each test, sixty minutes after the injection of vehicle or test compound, or 30 min after injection of the positive control, buspirone, mice were individually placed into test cages containing 1.5 in of Aspen bedding (PWI brand) and two rows of 10 marbles (20 marbles per test cage total). Filter tops were used to cover each test cage. Thirty minutes later, mice were removed from test cages and returned to their home cages. The number of fully visible marbles (less than ⅔ covered with bedding) were counted and subtracted from 20 to arrive at the number of marbles buried. Twelve mice were tested per group.
Testing included multiple tests with each test performed to evaluate buspirone hydrochloride (BUS; Sigma Aldrich) (positive control) and/or a compound of the present invention. Each compound was dissolved immediately prior to testing in 20% beta-cyclodextrin (compound of the present invention) or distilled water (BUS) and administered at one or more doses (such as 3, 10, and/or 30 mg/kg) via subcutaneous (SC) or intraperitoneal (IP) injection at the indicated pretreatment times (i.e., 30, 60, or 120 min pretreatment). Doses were measured in mg drug (salt form) per kg body weight. Data was analyzed using one-way ANOVA with post-hoc Dunnett's test.

Experiment [3] deals with mGluR5 (Homo sapiens, UniProt P41594). The experiment in a line: Radioligand binding assay, [3H]MPEP filtration binding to membrane homogenates. Particulars: 5 nM [3H]MPEP; Ki calculated from IC50 by Cheng-Prusoff. On the procedure:
Binding assays were performed as described in [J. A. O'Brien et al. Mol. Pharmacol., 2003, 64, 731-740] with slight modifications. Briefly, after thawing, the membrane homogenates were resuspended in 50 mM Tris-HCl, 0.9% NaCl binding buffer at pH 7.4 to a final assay concentration of 40 μg protein/well for [^3H]methoxy-5-(2-pyridinylethynyl)pyridine ([^3H] MPEP) (American Radiolabeled Chemicals, Inc., St. Louis, Mo.) filtration binding. Incubations included 5 nM [^3H] MPEP, membranes and either buffer or varying concentrations of compound. Samples were incubated for 60 min at room temperature with shaking. Non-specific binding was defined with 10 μM MPEP. After incubation, samples were filtered over a GF/C filter (presoaked in 0.25% polyethyleneimine (PEI)) and then washed 4 times using a Tomtec® Harvester 96® Mach III cell harvester (Tomtec, Hamden, Conn.) with 0.5 mL ice-cold 50 mM Tris-HCl (pH 7.4).
IC50 values were derived from the inhibition curve and Ki values were calculated according to the Cheng and Prusoff equation of Ki=IC50/(1+[L]/Kd) described in [Y. Cheng and W. H. Prusoff Biochem. Pharmacol. 1973, 22, 3099-3108] where [L] is the concentration of radioligand and Kd is its dissociation constant at the receptor, derived from the saturation isotherm.

Experiment [4] relates to adult, male Sprague-Dawley rats. Description: Modified Geller-Seifter conflict test, anxiolytic effect. Conditions: for Statistically significant Active dose(s): oral, Geller-Seifter assay, ANOVA with Dunnett's test or t-test; for Geller-Seifter EDmin: rat conflict test, PO for Example 58. The experiment is classed as in vivo, rat. How it is done:
as §1
More specifically for the Geller-Seifter Conflict testing, rodent operant chambers (ENV-007CT, Med Associates Inc. (Georgia, Vt.)) and sound-attenuating chambers (ENV-018MD, Med Associates Inc.) were used. Each chamber was equipped with a house light, cue lights, grid floor to deliver foot shocks via a programmable shocker, (ENV-414, Med Associates, Inc.) and food hopper. Two levers were located on either side of the food hopper, Rats were trained to only respond on the left lever. Food reinforcement was used (Dustless Precision Pellets, 45 mg, BioServ, (Frenchtown, N.J.)). MED-PCIV software (Med Associates) was used to run experimental sessions and collect data.
Prior to beginning the Conflict procedure, animals were initially trained to lever press on fixed ratio schedules (FR 1, 2, 5, and 10). Once animals obtained 25 rewards on a FR 10 schedule for 2 consecutive days, animals began training on a three component Conflict schedule. […] These three components were repeated twice in the same order during the daily 30 minute session.
Animals were tested using a Latin-squares design, on Wednesdays and Fridays. Animals served as their own controls and received all treatments. To maintain baseline performance, animals were also trained the remaining three weekdays.
Testing was performed using 12 adult, male Sprague-Dawley rats, weighing 426-567 g (Charles River Laboratories (Kingston, N.Y.)). Animals were pair-housed in colony rooms maintained at controlled temperature (68-72° F.) and a 12-h light/dark cycle (lights on 06:00). Animals were given free access to water, while food was limited to 15 g of Bacon Lover's Treats (BioServ) after training/testing Monday through Thursday. Friday through Sunday, animals had free access to Lab Diet 5012 Rat Diet (PMI Nutrition International, LLC, Brentwood, Mo.) until cages were changed and food removed on Sunday.
Testing included multiple tests where each test was performed to evaluate either a reference compound or a compound of the present invention. Reference anxiolytics included chlordiazepoxide, diazepam and buspirone, which were dissolved in saline or water and administered via SC, IP, and/or PO, Test compounds were dissolved in 20% beta-cyclodextrin, and the pH was adjusted to 7 with NaHCO3. For each test, the compound to be evaluated was tested at one or more doses (such as 10, 20, 30 and/or 50 mg/kg) via p.o. administration 60 minutes before the test using an injection volume of 2 mL/kg in comparison with a vehicle control group. Doses were measured in mg drug (salt form) per kg body weight. Data was analyzed using Repeated Measures ANOVA with post-hoc Dunnett's test.

We go through 14 compounds from patent US8716284B2, “Adamantyl diamide derivatives and uses of same” (H. Lundbeck A/S, priority 2008, dated 2014).

One may read the Ki as a dissociation constant, usually derived from enzyme kinetics or from competition with a known ligand.

T1 sequence (P31424 21-1171 isoform P31424-2 limits assumed): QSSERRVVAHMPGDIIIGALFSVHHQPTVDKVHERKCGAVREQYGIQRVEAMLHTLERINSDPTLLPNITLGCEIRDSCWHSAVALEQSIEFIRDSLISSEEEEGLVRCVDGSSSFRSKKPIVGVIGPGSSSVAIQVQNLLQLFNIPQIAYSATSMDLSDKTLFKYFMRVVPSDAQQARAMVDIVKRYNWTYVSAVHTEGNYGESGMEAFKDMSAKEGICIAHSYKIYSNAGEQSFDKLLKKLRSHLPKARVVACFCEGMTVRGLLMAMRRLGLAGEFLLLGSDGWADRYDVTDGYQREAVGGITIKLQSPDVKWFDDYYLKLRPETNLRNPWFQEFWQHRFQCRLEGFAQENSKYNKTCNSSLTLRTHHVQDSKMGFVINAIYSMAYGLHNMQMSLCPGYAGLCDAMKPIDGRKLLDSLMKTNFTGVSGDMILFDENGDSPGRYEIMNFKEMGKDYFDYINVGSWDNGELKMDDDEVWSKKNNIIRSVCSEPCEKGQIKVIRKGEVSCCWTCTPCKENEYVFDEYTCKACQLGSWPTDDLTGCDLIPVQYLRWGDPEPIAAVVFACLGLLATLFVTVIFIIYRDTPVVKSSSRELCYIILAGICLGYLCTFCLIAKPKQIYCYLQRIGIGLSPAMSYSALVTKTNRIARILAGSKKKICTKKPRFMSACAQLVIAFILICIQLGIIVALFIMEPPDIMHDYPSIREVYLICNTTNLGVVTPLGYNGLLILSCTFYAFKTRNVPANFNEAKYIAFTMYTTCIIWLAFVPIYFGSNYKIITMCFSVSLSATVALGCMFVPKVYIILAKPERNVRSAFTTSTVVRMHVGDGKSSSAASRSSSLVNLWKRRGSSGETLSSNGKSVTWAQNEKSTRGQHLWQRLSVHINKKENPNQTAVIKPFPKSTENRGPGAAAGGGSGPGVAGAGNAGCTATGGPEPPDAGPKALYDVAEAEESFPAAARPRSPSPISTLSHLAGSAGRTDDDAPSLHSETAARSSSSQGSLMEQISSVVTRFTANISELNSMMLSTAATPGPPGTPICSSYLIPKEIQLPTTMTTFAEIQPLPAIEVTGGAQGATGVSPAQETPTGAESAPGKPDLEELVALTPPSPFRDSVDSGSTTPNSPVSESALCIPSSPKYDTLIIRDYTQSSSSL
mGluR5, sequence (P41594 21-1212): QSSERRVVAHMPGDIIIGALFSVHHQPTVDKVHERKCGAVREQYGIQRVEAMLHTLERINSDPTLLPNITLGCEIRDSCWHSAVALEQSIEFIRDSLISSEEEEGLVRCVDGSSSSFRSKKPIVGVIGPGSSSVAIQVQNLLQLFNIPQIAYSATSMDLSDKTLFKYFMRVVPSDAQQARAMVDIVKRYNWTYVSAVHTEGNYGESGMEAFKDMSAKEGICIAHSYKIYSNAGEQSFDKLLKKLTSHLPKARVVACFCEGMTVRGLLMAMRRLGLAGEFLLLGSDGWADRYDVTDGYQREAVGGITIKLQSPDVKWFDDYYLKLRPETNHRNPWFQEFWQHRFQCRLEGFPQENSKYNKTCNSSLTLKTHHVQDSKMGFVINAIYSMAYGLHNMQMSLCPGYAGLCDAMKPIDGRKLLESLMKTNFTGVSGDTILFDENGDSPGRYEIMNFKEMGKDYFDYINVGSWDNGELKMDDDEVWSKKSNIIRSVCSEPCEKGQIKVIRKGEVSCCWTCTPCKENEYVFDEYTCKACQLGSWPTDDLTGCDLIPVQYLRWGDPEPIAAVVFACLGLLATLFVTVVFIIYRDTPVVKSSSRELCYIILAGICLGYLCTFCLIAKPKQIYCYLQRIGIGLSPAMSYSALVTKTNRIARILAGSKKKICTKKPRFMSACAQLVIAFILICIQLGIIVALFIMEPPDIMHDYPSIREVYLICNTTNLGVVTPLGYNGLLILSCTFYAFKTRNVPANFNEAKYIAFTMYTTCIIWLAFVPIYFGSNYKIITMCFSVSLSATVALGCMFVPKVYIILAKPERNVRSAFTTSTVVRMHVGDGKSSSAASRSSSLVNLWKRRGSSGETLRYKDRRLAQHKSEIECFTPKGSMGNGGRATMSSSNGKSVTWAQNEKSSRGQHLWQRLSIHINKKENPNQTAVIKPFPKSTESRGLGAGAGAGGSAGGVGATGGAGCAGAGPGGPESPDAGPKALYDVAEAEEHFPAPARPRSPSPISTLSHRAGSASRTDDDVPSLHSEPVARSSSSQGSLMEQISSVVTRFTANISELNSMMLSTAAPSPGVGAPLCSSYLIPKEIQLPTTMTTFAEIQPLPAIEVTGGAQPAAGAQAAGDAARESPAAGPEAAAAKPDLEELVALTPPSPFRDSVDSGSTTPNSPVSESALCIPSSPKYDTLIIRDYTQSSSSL

As to `Cc1cnc(C(=O)NC23CC4CC(CC(NC(=O)c5ccccn5)(C4)C2)C3)cn1` [Example 63, 5-Methyl-pyrazine-2-carboxylic acid {3-[(pyridine-2-carbonyl)-amino]-adamantan-1-yl}-amide], the Emax in experiment [1] was in the range of 63 to 99%. Besides, in experiment [2], the minimal effective dose stood at 30 mg/kg.

`O=C(NC12CC3CC(C1)CC(NC(=O)c1cnccn1)(C3)C2)c1ccccn1` [Example 105, Pyrazine-2-carboxylic acid {3-[(pyridine-2-carbonyl)-amino]-adamantan-1-yl}-amide]: in experiment [3], the Ki was 6 to 700 nM. The Emax in experiment [1] lay within 70 to 99%. In experiment [2], the minimal effective dose is 30 mg/kg.

As for `Cc1cccc(C(=O)NC23CC4CC(C2)CC(NC(=O)c2cccc(C)n2)(C4)C3)n1` [Example 1, N,N′-(1,3-adamantylene)bis(6-methyl-pyridine-2-carboxamaide)], the Ki in experiment [3] is 6.7 nM. Besides, the Emax in experiment [1] lay within 90 to 99%. Moreover, the “mMB EDmin” value in experiment [2] stood at 3 mg/kg. Moreover, in experiment [4], the “Statistically significant Active dose(s)” value was found to be 50 mg/kg and the “Geller-Seifter EDmin” value is reported as 10 mg/kg.

Regarding `Cc1cncc(C(=O)NC23CC4CC(CC(NC(=O)c5ccccn5)(C4)C2)C3)n1` [Example 58, 6-Methyl-pyrazine-2-carboxylic acid {3-[(pyridine-2-carbonyl)-amino]-adamantan-1-yl}-amide], the Ki in experiment [3] is 6 to 700 nM. Moreover, in experiment [1], the Emax lay in the range of 63 to 99%. For the same compound, the “mMB EDmin” value in experiment [2] is 10 mg/kg. In addition, the “Geller-Seifter EDmin” value in experiment [4] is recorded as 10 mg/kg.

Take `Cc1cncc(C(=O)NC23CC4CC(CC(NC(=O)c5ccc(F)cn5)(C4)C2)C3)n1` [Example 179, 6-Methyl-pyrazine-2-carboxylic acid {3-[(5-fluoro-pyridine-2-carbonyl)-amino]-adamantan-1-yl}-amide]: the minimal effective dose in experiment [2] came to 10 mg/kg.

Consider `O=C(NC12CC3CC(C1)CC(NC(=O)c1ccccn1)(C3)C2)c1ccccn1` [Example 2, N,N′-(1,3-adamantylene)bis(2-pyridinecarboxamide)], for which the Ki in experiment [3] was 40 nM. Further, the Emax in experiment [1] was 90 to 99%. Also, in experiment [2], the “mMB EDmin” value is listed as 30 mg/kg and the minimal effective dose came to 30 mg/kg. In addition, in experiment [4], the “Statistically significant Active dose(s)” value is on record as 20 mg/kg and the “Geller-Seifter EDmin” value is listed as 20 mg/kg.

With `O=C(NC12CC3CC(C1)CC(NC(=O)c1ccncn1)(C3)C2)c1cccc(F)c1` [Example 93, Pyrimidine-4-carboxylic acid [3-(3-fluoro-benzoylamino)-adamantan-1-yl]-amide], the Ki in experiment [3] is 6 to 700 nM. For the same compound, in experiment [1], the Emax fell in the range of 63 to 99%. The minimal effective dose in experiment [2] came to 30 mg/kg.

In the case of `Cc1cccc(C(=O)NC23CC4CC(CC(NC(=O)c5cnccn5)(C4)C2)C3)n1` [Example 41, Pyrazine-2-carboxylic acid {3-[(6-methyl-pyridine-2-carbonyl)-amino]-adamantan-1-yl}-amide], the Emax in experiment [1] is 63 to 99%. Moreover, in experiment [4], the “Statistically significant Active dose(s)” value was determined as 30 mg/kg.

Consider `Cc1cnc(C(=O)NC23CC4CC(CC(NC(=O)c5cccc(F)c5)(C4)C2)C3)cn1` [Example 94, 5-Methyl-pyrazine-2-carboxylic acid [3-(3-fluoro-benzoylamino)-adamantan-1-yl]-amide], for which the Ki in experiment [3] was 6 to 700 nM. The Emax in experiment [1] was 63 to 99%. The “Statistically significant Active dose(s)” value in experiment [4] is recorded as 20 mg/kg.

Turning to `Cc1nccc(C(=O)NC23CC4CC(CC(NC(=O)c5cccc(F)c5)(C4)C2)C3)n1` [Example 183, 2-Methyl-pyrimidine-4-carboxylic acid [3-(3-fluoro-benzoylamino)-adamantan-1-yl]-amide], the minimal effective dose in experiment [2] stood at 10 mg/kg.

On to `O=C(NC12CC3CC(C1)CC(NC(=O)c1cnccn1)(C3)C2)c1ccc(F)cn1` [Example 185, Pyrazine-2-carboxylic acid {3-[(5-fluoro-pyridine-2-carbonyl)-amino]-adamantan-1-yl}-amide], for which the Emax in experiment [1] lay in the range of 63 to 99%. For the same compound, the minimal effective dose in experiment [2] worked out at 30 mg/kg.

For `Cc1nccc(C(=O)NC23CC4CC(CC(NC(=O)c5ccccn5)(C4)C2)C3)n1` [Example 107, 2-Methyl-pyrimidine-4-carboxylic acid {3-[(pyridine-2-carbonyl)-amino]-adamantan-1-yl}-amide], the Ki in experiment [3] is 6 to 700 nM. The Emax in experiment [1] lay within 70 to 99%. For the same compound, the minimal effective dose in experiment [2] came to 10 mg/kg.

As for `Cc1cncc(C(=O)NC23CC4CC(C2)CC(NC(=O)c2cncc(C)n2)(C4)C3)n1` [Example 145, N,N′-(1,3-adamantylene)bis(6-methyl-pyrazine-2-carboxamide)], in experiment [1], the Emax lay within 70 to 99%. Further, in experiment [2], the minimal effective dose was 30 mg/kg.

Turning to `Cc1cccc(C(=O)NC23CC4CC(C2)CC(NC(=O)c2ccnc(C)n2)(C4)C3)n1` [Example 119, 2-Methyl-pyrimidine-4-carboxylic acid {3-[(6-methyl-pyridine-2-carbonyl)-amino]-adamantan-1-yl}-amide], the Ki in experiment [3] is 6 to 700 nM. In experiment [1], the Emax was 70 to 99%. Moreover, in experiment [2], the minimal effective dose was 10 mg/kg.
